Measurements: patent US6689574B1, “Assays for nuclear receptor agonists and antagonists using fluorescence resonance energy transfer” (Merck & Co., Inc., priority 1997, dated 2004)

Tests used:
Assay type in all cases: biochemical
GST-hPPARγ1LBD = biological target: T1, GST-hPPARγ1LBD (Homo sapiens, UniProt P37231); assay: FRET assay, biotin-hCBP1-453 with SA-XL665, GST-hPPARγ1LBD and Eu3+K-labeled anti-GST antibody (experiment 4); conditions: HEPES + 0.05% CHAPS, 1 μM AD5075, ratio 665 nm/620 nm
T1 construct: amino acids 176-478 of PPARγ1; made in house; host or cells: E. coli (DH5α)
Experimental: To further improve the signal to noise ratio, a series of experiments were conducted. Experiment 4 of Table 1 exemplifies 5 results obtained from those efforts. cDNA encoding a longer fragment of hCBP was cloned and expressed to get hCBP1-453. hCBP1-453 was biotinylated. Biotin-labeled hCBP1-453 (25 nM), SA-XL665 (100 nM), GST-hPPARγ1LBD (1 nM), and Eu3+K-labeled anti-GST antibody (2 nM) were mixed together in the presence or absence of 1 μM AD5075. […] A three- to four-fold signal-noise ratio was obtained.

PPARγ1LBD [1] = biological target: T2, PPARγ1LBD (Homo sapiens, UniProt P37231); assay: FRET assay, GST-hCBP1-113 with Eu3+K-labeled anti-GST antibody, biotin-hPPARγ1LBD and SA-XL665 (experiment 3); parameters: amino acids 176-478 of PPARγ1; GST (N, cleaved yes); made in house; host or cells: E. coli (DH5α); conditions: HEPES + 0.05% NP40, 1 μM AD5075, ratio 665 nm/620 nm
Experimental: In order to get an even better signal-noise ratio, the above-described format was modified slightly for experiment 3. In experiment 3, SA-XL665 (500 nM), biotin-labeled hPPARγ1LBD (100 nM), GST-hCBP1-113, and Eu3+K labeled anti-GST antibody (2.5 μl) were incubated in the presence or absence of AD5075 (1 μM) in HEPES buffer containing 0.05% NP40. A two-fold signal- noise ratio was obtained.
The anti-GST antibody was a goat antibody to GST from Pharmacia (catalogue number 27-4577-01) that was labeled with Eu3+K according to the procedure summarized below. [drawing 2]

PPARγ1LBD [2] = biological target: T2, PPARγ1LBD; assay: FRET assay, Eu3+K-labeled hCBP1-113 with biotin-hPPARγ1LBD and SA-XL665 (experiments 1 and 2); parameters: amino acids 176-478 of PPARγ1; GST (N, cleaved yes); made in house; host or cells: E. coli (DH5α); conditions: 1 μM AD5075, ratio 665 nm/620 nm
Text: Experiments were first conducted using hCBP1-113 and hPPARγ1LBD. Purified hPPARγ1LBD was biotinylated with Sulfo-NHS-LC-Biotin (PIERCE) to a biotin:hPPARγ1LBD ratio of 3:1 according to the procedure provided by PIERCE. Purified hCBP1-113 was directly labeled with europium cryptate (Eu3+K) by the method illustrated in FIG. 1.
Thus, this experimental format made use of the fluorescent reagent pair europium cryptate (Eu3+K), which acted as donor, and XL665, which acted as acceptor. hCBP1-113 was directly labeled with europium cryptate (Eu3+K); hPPARγ12LBD was indirectly labeled with XL665 by means of a biotin-streptavidin link. The emission maximum of europium cryptate (Eu3+K) overlaps with the absorption maximum of XL665. Therefore, when europium cryptate (Eu3+K) and XL665 are in close proximity, and the sample is illuminated with light at 337 nm (the absorption maximum of europium cryptate (Eu3+K)), FRET can occur between europium cryptate (Eu3+K) and XL665. This FRET manifests itself as increased emission at 665 nm by XL665. […] When agonist is bound to hPPARγ1LBD, a specific interaction occurs between hPPARγ1LBD and hCBP1-113, thus bringing europium cryptate (Eu3+K) and XL665 into close enough proximity for FRET to occur. […]

PPARγ = biological target: T3, PPARγ (Homo sapiens, UniProt P37231); assay: Titration of known PPARγ agonists in the CBP/PPARγ FRET assay (FIG. 5); conditions: derived from FIG. 5; agonist-induced CBP-PPARγ FRET
T3 construct: amino acids 176-478 of PPARγ1; GST (N); made in house; host or cells: E. coli (DH5α)
T3 sequence (P37231 204-505 limits assumed): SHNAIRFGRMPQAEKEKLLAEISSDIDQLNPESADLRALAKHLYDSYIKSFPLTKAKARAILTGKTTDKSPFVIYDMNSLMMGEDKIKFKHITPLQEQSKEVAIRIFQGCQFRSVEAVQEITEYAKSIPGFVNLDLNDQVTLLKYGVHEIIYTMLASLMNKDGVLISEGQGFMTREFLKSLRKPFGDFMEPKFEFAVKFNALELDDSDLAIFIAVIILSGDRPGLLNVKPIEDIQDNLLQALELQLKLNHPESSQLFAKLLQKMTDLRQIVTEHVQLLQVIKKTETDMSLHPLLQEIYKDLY
T3 sequence (Q92793 1-453 partner limits assumed): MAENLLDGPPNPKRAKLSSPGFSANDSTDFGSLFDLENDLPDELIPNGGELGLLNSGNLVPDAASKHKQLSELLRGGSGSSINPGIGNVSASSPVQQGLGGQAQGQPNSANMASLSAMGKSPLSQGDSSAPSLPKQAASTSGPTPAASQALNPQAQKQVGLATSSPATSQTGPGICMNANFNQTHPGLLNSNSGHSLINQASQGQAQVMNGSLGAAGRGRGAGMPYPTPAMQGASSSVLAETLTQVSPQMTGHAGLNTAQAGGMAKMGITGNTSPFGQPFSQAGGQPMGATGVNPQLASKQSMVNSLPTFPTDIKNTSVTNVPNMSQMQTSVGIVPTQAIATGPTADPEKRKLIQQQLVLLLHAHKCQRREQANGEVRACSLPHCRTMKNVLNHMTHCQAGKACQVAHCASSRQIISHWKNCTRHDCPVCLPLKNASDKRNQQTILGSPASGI

T2 sequence (P37231 204-505): as the sequence (P37231 204-505 limits assumed) above
T2 sequence (Q92793 1-113 partner): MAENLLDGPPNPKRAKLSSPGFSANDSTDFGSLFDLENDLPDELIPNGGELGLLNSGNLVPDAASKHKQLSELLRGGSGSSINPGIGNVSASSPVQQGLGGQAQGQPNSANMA
T1 sequence (P37231 204-505): as the sequence (P37231 204-505 limits assumed) above
T1 sequence (Q92793 1-453 partner): as the sequence (Q92793 1-453 partner limits assumed) above

Cc1oc(-c2ccccc2)nc1C(O)COc1ccc(CC2SC(=O)NC2=O)cc1 (centres unmarked) [AD5075]
Emission ratio with AD5075 (GST-hPPARγ1LBD): 1883
Emission ratio with AD5075 (PPARγ1LBD [1]): 1078
Emission ratio with AD5075 (PPARγ1LBD [2]; Experiment 1, PBS buffer): 1134
Emission ratio with AD5075 (PPARγ1LBD [2]; Experiment 2, HEPES + 0.05% NP40): 967
EC50 (PPARγ): 8 nM
